Test results taken from patent US12365709B2, “Immunomodulatory peptide” (INSTITUT NATIONAL UNI[…]-FRANCOIS CHAMPOLLION, priority 2017, dated 2025).
No end group written: not given here.

What was measured:
[1] = system: macrophages derived from human monocytes; assay: Production of ROS by macrophages derived from human monocytes in response to C. albicans (luminol chemiluminescence); format: cell-based; settings: macrophages treated 24 hours; yeast ratio per macrophage 3:1; vs untreated
Text: To analyse the production of ROS, the macrophages derived from human monocytes have been treated, or not, with the peptide P17, P17, non-amidated, or with the following P17 fragments, P17(1-5), P17(1-7), P17(1-9), P17(1-11), P17(3-13), P17(5-13), P17(7-13) and P17(9-13); the fragments P17(1-5), P17(1-7), P17(1-9), P17(1-11) not being amidated at the C-terminal […] and the fragments P17(3-13), P17(5-13), P17(7-13) and P17(9-13) being amidated at the C-terminal. Then, the macrophages derived from human monocytes thus treated have been incubated at 37° C. for 24 hours. The production of reactive derivatives of oxygen (ROS) has been measured by chemiluminescence in the presence of 5-amino-2,3-dihydro-1,4-phthalazinedione (luminol) (EnVision; PerkinElmer). The chemiluminescence generation has been continually measured for 1 hour 30 minutes after incubation of cells with luminol (66 μM) in the presence, or not, of C. albicans (yeast ratio per macrophage: 3:1).

[2] = system: macrophages derived from human monocytes; assay: Removal of C. albicans by macrophages derived from human monocytes (CFU); format: cell-based; settings: macrophages treated with peptide 24 hours, then C. albicans 0.3 yeasts per macrophage, 4 hours; vs untreated
Procedure: The macrophages derived from human monocytes have been treated, or not, with the peptide P17 or fragments of it then incubated at 37° C. for 24 hours. These cells have been incubated for 40 minutes at 37° C. with C. albicans (at a ratio of 0.3 yeasts per macrophage) and the non-bound yeasts are removed by washing. These macrophages are thus incubated at 37° C. for 4 hours. After incubation, the environment has been removed and the cells have been lysed. The units forming colonies (CFU) of C. albicans have been determined on Sabouraud boxes after spreading and culturing for 48 hours at 37° C.

[3] = system: EL4 tumour cells; assay: Number of lymphoma T tumour cells (EL4) in the presence of murine macrophages; format: cell-based; settings: co-culture with macrophages polarised by P17; vs untreated macrophages
Procedure: Peritoneal murine macrophages have been treated, or not, with the peptide P17 then incubated at 37° C. for 24 hours. These macrophages have been incubated for 40 minutes at 37° C. with luminescent lymphoma T cells (EL4-luc) and unbound cells are removed by washing. These macrophages are thus incubated at 37° C. for 4 hours. After incubation, the number of lymphoma T cells (EL4-luc) is evaluated by chemiluminescence.

[4] = system: peritoneal murine macrophages; assay: Production of ROS by murine macrophages in response to murine lymphoma T tumour cells (EL4); format: cell-based; settings: murine macrophages treated with P17 24 hours
Procedure: To analyse the production of ROS, peritoneal murine macrophages have been treated, or not, with the peptide P17 then incubated at 37° C. for 24 hours. The production of reactive derivatives of oxygen (ROS) has been measured by chemiluminescence in the presence of 5-amino-2,3-dihydro-1,4-phthalazinedione (luminol) (EnVision; PerkinElmer). The chemiluminescence generation has been continually measured for 1 hour 30 minutes after incubation of cells with luminol […] in the presence, or not, of EL4 lymphoma T tumour cells.

[5] = system: macrophages derived from human monocytes; assay: Production of IL-1β, TNFα, IL-10 and IL-12 by macrophages derived from human monocytes in response to C. albicans (ELISA); format: cell-based; settings: P17 24 hours then C. albicans 3:1 for 8 hours
Procedure: Macrophages derived from human […] have been stimulated with the peptide P17 for 24 hours, then these macrophages activated by the peptide P17 have been stimulated with C. albicans at a yeast per macrophage ratio of 3:1 for 8 hours. The production of IL-1β, TNFα, IL-10 and IL-12 in cell supernatants has been determined by ELISA (OptiElA BD Biosciences).

[6] = system: C-type lectin receptors; assay: Protein expression of C-type lectin receptors (flow cytometry); format: cell-based, human; settings: P17 200 μg/ml, 24 hours
Procedure: To analyse the protein level of C-type lectin receptors, the macrophages derived from human monocytes have been treated, or not, with the peptide P17 (200 μg/ml) then incubated at 37° C. for 24 hours. The cells collected have been centrifugated at 1500 rpm for 10 minutes and […] have been suspended in the PBS supplemented with 1% foetal calf serum (FCS). The cells have been marked with antibodies coupled with different fluorochromes directed against the Dectin-1 receptor (mAb; R&D FAB1859C-100, 1/40), DC-SIGN (mAb; BD Biosciences 551 265, 1/20) CD16 (mAb; PNIM 0814, 1/20), CD36 (mAb; BD Biosciences 550 956, 1/40) and the mannose receptor (specific MR (mannose receptor) ligand) conjugated FITC (Sigma A7790, 1 mg/ml 1/100)). The analysis has been carried out by flow cytometry (Becton Dickinson FACScalibur) over a population of 10000 cells.

[7] = system: C. albicans; assay: Experimental gastrointestinal Candida murine model; format: in vivo; settings: P17 10 μg per mouse i.p., vs untreated mice
Procedure: For in vivo experiments, a gastrointestinal infection with the C. albicans strain 98/26135 has been established by feeding with 50×10^6 of C. albicans per mouse (n=8 per group). No antibiotic or immunosuppressant treatment has been used to facilitate the infection of mucous membranes of the oral cavity and of the gastrointestinal tract. The mice have been treated intraperitoneally (i.p.) with the peptide P17 (10 μg per mouse) or with a saline solution for control groups, 1 day before the injection with C. albicans, 1 day after infection and then every 2 days (5 injections). The body weight of each mouse has been recorded daily. On the 8th day after treatment (7 days after infection), all mice have been euthanised by asphyxiation with CO2.
The oesophagus, the stomach, the caecum and the liver have been removed aseptically to evaluate the colonisation by C. albicans. The peritoneal macrophages of the mice have been sampled and the ex vivo capacities thereof to remove and to phagocytose Candida albicans have been determined. The production of ROS, IL-(3 and IL-12 by these macrophages in response to Candida albicans have also been evaluated.

[8] = system: macrophages derived from human monocytes; assay: Binding and phagocytosis of C. albicans by macrophages derived from human monocytes; format: cell-based; settings: macrophages treated 24 hours, GFP yeasts, vs untreated
Procedure: To analyse the binding and the phagocytosis of C. albicans, macrophages derived from human monocytes have been treated, or not, with the peptide P17, then incubated at 37° C. for 24 hours. The macrophages derived from human monocytes have been brought together with the yeasts marked GFP (ratio 1/6) then incubated at 4° C. for 20 minutes, in order to evaluate the binding. The phagocytosis has been evaluated after 1 hour of incubation at 37° C. The quantity of C. albicans bound or ingested by macrophages derived from human monocytes has been determined by measuring the fluorescence by using a fluorimeter (PerkinElmer EnVision).

Substance	production of ROS in response to C. albicans [1]	removal of C. albicans by macrophages [2]	other results
KEILEKIKAKL [P17(3-13)]	conserve the activity	activity close to that of P17	–
LFKEILE (LFKEILE-OH) [P17(1-7)]	does not induce the production of ROS	does not induce the production of ROS, nor the removal of Candida albicans	–
EKIKAKL [P17(7-13)]	Only the fragments P17(3-13) and P17(5-13) conserve the activity	–	–
LFKEILEKIKAKL [P17] (LFKEILEKIKAKL-NH2)	higher production of ROS	considerably increases the capacity of human macrophages to remove in vitro C. albicans	number of EL4 tumour cells [3]: decreases significantly; production of ROS in response to EL4 tumour cells [4]: increased production of ROS; production of IL-1β [5]: higher production; production of TNFα [5]: higher production; expression of C-type lectin receptors on the surface of macrophages [6]: overexpression of C-type lectin receptors; loss of body weight ([7]; mice with gastrointestinal candidiasis): lesser loss of weight; gastrointestinal colonisation by Candida albicans ([7]; mice): significantly lower; capacity to recognise (binding) C. albicans ([8]; 4° C. for 20 minutes): greater capacity to recognise; capacity to phagocytose C. albicans ([8]; 1 hour at 37° C.): greater capacity to recognise and to phagocytose C. albicans
LFKEILEKI (LFKEILEKI-OH) [P17(1-9)]	does not induce the production of ROS	does not induce the production of ROS, nor the removal of Candida albicans	–
LFKEILEKIKA (LFKEILEKIKA-OH) [P17(1-11)]	does not induce the production of ROS	does not induce the production of ROS, nor the removal of Candida albicans	–
LFKEI (LFKEI-OH) [P17(1-5)]	does not induce the production of ROS	does not induce the production of ROS, nor the removal of Candida albicans	–
ILEKIKAKL [P17(5-13)]	conserve the activity	activity close to that of P17	–
IKAKL [P17(9-13)]	Only the fragments P17(3-13) and P17(5-13) conserve the activity	–	–
LFKEILEKIKAKL [non-amidated P17] (LFKEILEKIKAKL-OH; listed as Tetramorium bicarinatum)	C-terminal amidation of P17 is essential to the pro-inflammatory activity	–	–
